Data published in patent US20180008587A1, “THIOHYDANTOIN ANDROGEN RECEPTOR ANTAGONISTS FOR THE TREATMENT OF CANCER” (Jaressen Pharmaceutica NV, priority 2016, published 2018).
Substitutions are numbered along the chain they refer to. pEC50: −log10 of the molar value. Read-outs that look alike come from different tables or passages of the source.

Assays:
Type in all cases: cell-based
[1] = molecular target: T1, wild-type Androgen Receptor (AR-wt) (Homo sapiens, UniProt P10275); test: LNCaP-AR-wt AG reporter assay (ARE firefly luciferase, agonist mode); conditions: for EC50: agonist mode, −Log10(EC50 [Molar]), read-out: LNCaP-AR-wt AG pEC50 (converted); for Emax: read-out: LNCaP-AR-wt AG MAX % Stim
T1 construct: expressed in transfected cells; host or cells: LNCaP (LNCaP AR (cs))
T1 sequence (P10275 1-920): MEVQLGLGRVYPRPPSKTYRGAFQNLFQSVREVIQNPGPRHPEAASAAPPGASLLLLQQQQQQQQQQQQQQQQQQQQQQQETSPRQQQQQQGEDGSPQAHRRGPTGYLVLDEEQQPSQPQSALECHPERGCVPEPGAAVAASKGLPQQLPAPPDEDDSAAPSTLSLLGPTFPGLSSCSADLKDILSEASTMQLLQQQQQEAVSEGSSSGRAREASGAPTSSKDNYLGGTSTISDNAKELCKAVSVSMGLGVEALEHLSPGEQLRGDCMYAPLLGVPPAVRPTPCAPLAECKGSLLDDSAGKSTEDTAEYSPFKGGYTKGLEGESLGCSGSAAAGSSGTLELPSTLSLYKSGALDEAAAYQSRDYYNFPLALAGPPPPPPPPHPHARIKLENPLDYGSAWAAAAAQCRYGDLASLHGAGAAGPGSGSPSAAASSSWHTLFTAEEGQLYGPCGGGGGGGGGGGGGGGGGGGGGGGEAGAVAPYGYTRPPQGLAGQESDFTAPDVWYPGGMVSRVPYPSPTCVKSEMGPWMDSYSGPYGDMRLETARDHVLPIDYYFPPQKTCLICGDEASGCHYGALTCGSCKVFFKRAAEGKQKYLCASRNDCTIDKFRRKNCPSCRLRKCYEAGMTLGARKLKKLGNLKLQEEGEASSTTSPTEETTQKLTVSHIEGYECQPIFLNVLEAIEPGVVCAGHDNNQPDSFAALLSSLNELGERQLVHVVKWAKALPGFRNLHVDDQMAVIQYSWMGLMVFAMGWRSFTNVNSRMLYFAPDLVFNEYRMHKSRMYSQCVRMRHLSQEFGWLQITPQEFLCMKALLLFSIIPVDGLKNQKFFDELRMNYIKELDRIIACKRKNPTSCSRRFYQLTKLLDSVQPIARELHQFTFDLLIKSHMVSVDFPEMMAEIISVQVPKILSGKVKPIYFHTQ
Protocol: (§1) A stable pooled-population cell line was generated using puromycin (Life Technologies) selection at 1:10,000 v/v. The protocol below was used for both cell lines and for testing of the compounds of Formula (I) of the present invention.
(§2) LNCaP cells were grown to about 80% confluence, media removed and cells rinsed in Hank's balanced salt solution prior to separation from the plate with 0.05% Trypsin EDTA. Cells were lifted and trypsin negated in complete CSS (charcoal stripped serum) culture media. […] Agonist challenge was at 400 pM for WT assay and 600 pM for F876L assay. Plates containing cells and compounds herein were incubated for a further 20-24 hours at 37° C., 5% CO2 before addition of 40 μL/well of Steady-Glo Luciferase Assay System Reagent (Promega# E2520). After 1 h, plates were read for luminescence on a BMG Pherastar.
(§3) EC/IC50 calculations were achieved utilizing calculated RLU data and data fitting macros. Data were fit using least-squares methods to the following formula: […]

[2] = molecular target: T2, F876L mutant Androgen Receptor (AR-F876L) (Homo sapiens, UniProt P10275, F877L); test: LNCaP-AR-F876L ANT reporter assay (ARE firefly luciferase, antagonist mode); conditions: for Emax: read-out: LNCaP-AR-F876L ANT MAX % Inh; for IC50: read-out: LNCaP-AR-F876L ANT pIC50 (converted)
T2 construct: expressed in transfected cells; host or cells: LNCaP (LNCaP F876L)
T2 sequence (P10275 1-920 F877L): T1 sequence (P10275 1-920) with F877L
Protocol: as §1, §2, §3

[3] = molecular target: T1, wild-type Androgen Receptor (AR-wt); test: LNCaP-AR-wt ANT reporter assay (ARE firefly luciferase, antagonist mode); conditions: for IC50: antagonist mode, 400 pM R-1881 challenge, −Log10(IC50 [Molar]), read-out: LNCaP-AR-wt ANT pIC50 (converted); for Emax: read-out: LNCaP-AR-wt ANT MAX % Inh
Protocol: as §1, §2, §3

[4] = molecular target: T2, F876L mutant Androgen Receptor (AR-F876L); test: LNCaP-AR-F876L AG reporter assay (ARE firefly luciferase, agonist mode); conditions: for EC50: agonist mode, −Log10(EC50 [Molar]), read-out: LNCaP-AR-F876L AG pEC50 (converted); for Emax: read-out: LNCaP-AR-F876L AG MAX % Stim
Protocol: as §1, §2, §3

[5] = maximum % stimulation (agonist response) over tested concentration range
[6] = maximum % inhibition of R1881 control response over tested concentration range

Structure (SMILES)	EC50 [1] [nM]	Emax [1, 5] [%]	Emax [2, 6] [%]	IC50 [2] [nM]	IC50 [3] [nM]	Emax [3, 6] [%]	EC50 [4] [nM]	Emax [4, 5] [%]	Emax [1] [%]	Emax [4] [%]	pEC50 [1]	Emax [2] [%]	Emax [3] [%]	pEC50 [4]
N#Cc1ncc(N2C(=O)C3(CCC3)N(c3ccc(C(=O)NCc4cccc(Cl)c4)c(F)c3)C2=S)cc1C(F)(F)F [Cpd 95, N-[(3-chlorophenyl)methyl]-4-[6-[6-cyano-5-(trifluoromethyl)-3-pyridyl]-5-oxo-7-thioxo-6,8-diazaspiro[3.4]octan-8-yl]-2-fluoro-benzamide]	> 15100	0.2	92.3	1050	794	96.1	> 15100	1.5						
N#Cc1ncc(N2C(=O)C3(CCC3)N(c3ccc(C(=O)NCCc4cccnc4)c(F)c3)C2=S)cc1C(F)(F)F [Cpd 96, 4-[6-[6-cyano-5-(trifluoromethyl)-3-pyridyl]-5-oxo-7-thioxo-6,8-diazaspiro[3.4]octan-8-yl]-2-fluoro-N-[2-(3-pyridyl)ethyl]benzamide]	> 15100	1.5	100	347	407	101	> 15100	0.8						
Cc1ccc(N2C(=S)N(c3cnc(C#N)c(C)c3)C(=O)C23CCC3)cc1 [Cpd 29, 3-methyl-5-[5-oxo-8-(p-tolyl)-7-thioxo-6,8-diazaspiro[3.4]octan-6-yl]pyridine-2-carbonitrile]	> 15100		101	100	389	102	> 15100		0.7	0.3				
N#Cc1cccc(N2C(=S)N(c3cnc(C#N)c(C(F)(F)F)c3)C(=O)C23CCC3)c1 [Cpd 79, 5-[8-(3-cyanophenyl)-5-oxo-7-thioxo-6,8-diazaspiro[3.4]octan-6-yl]-3-(trifluoromethyl)pyridine-2-carbonitrile]	> 15100	1.6	101	331	631	101	> 15100	0.5						
N#Cc1ncc(N2C(=O)C3(CCC3)N(c3cccc(Oc4ccccc4)c3)C2=S)cc1C(F)(F)F [Cpd 20, 5-[5-oxo-8-(3-phenoxyphenyl)-7-thioxo-6,8-diazaspiro[3.4]octan-6-yl]-3-(trifluoromethyl)pyridine-2-carbonitrile]	> 15100	1.3	95.4	977	1320	90	> 15100	0.2						
N#Cc1ncc(N2C(=O)C3(CCC3)N(c3ccc(C(=O)Nc4ccccc4)c(F)c3)C2=S)cc1C(F)(F)F [Cpd 73, 4-[6-[6-cyano-5-(trifluoromethyl)-3-pyridyl]-5-oxo-7-thioxo-6,8-diazaspiro[3.4]octan-8-yl]-2-fluoro-N-phenyl-benzamide]	> 15100	1.9	99.1	417	759	99.5	> 15100	0.6						
Cc1cc(N2C(=O)C3(CCC3)N(c3ccc(C(=O)NCC4CCOCC4)c(F)c3)C2=S)cnc1C#N [Cpd 3, 4-[6-(6-cyano-5-methyl-3-pyridyl)-5-oxo-7-thioxo-6,8-diazaspiro[3.4]octan-8-yl]-2-fluoro-N-(tetrahydropyran-4-ylmethyl)benzamide]	> 15100	0.3	98.9	324	1350	99.6	> 15100	-0.3						
Cc1cc(N2C(=O)C3(CCC3)N(c3ccc(O)cc3)C2=S)cnc1C#N [Cpd 48, 5-[8-(4-hydroxyphenyl)-5-oxo-7-thioxo-6,8-diazaspiro[3.4]octan-6-yl]-3-methyl-pyridine-2-carbonitrile]	> 15100	1.1	99.2	398	617	96.3	> 15100	0.5						
Cc1ccc(N2C(=S)N(c3cnc(C#N)c(C(F)(F)F)c3)C(=O)C23CCC3)cc1F [Cpd 115, 5-[8-(3-fluoro-4-methyl-phenyl)-5-oxo-7-thioxo-6,8-diazaspiro[3.4]octan-6-yl]-3-(trifluoromethyl)pyridine-2-carbonitrile]	> 15100	1.1	96.1	437	372	100	> 15100	3.4						
N#Cc1ncc(N2C(=O)C3(CCC3)N(c3ccc(C(=O)NCc4ccccc4Cl)c(F)c3)C2=S)cc1C(F)(F)F [Cpd 31, N-[(2-chlorophenyl)methyl]-4-[6-[6-cyano-5-(trifluoromethyl)-3-pyridyl]-5-oxo-7-thioxo-6,8-diazaspiro[3.4]octan-8-yl]-2-fluoro-benzamide]				2240	2240				0.2	0.3	< 4.82	91	98.6	< 4.82
CN1CCC(Oc2ccc(N3C(=S)N(c4cnc(C#N)c(C(F)(F)F)c4)C(=O)C34CCC4)cc2F)CC1 [Cpd 28, 5-[8-[3-fluoro-4-[(1-methyl-4-piperidyl)oxy]phenyl]-5-oxo-7-thioxo-6,8-diazaspiro[3.4]octan-6-yl]-3-(trifluoromethyl)pyridine-2-carbonitrile]				204	501				-0.1	0	< 4.82	100	99.6	< 4.82
